Like-named read-outs stand apart in the source and are kept apart here.
What was measured:
[1] = system: Influenza strain A549_A/WSN/33 (H1N1); assay: Influenza antiviral assay (neuraminidase fluorescence readout); format: cell-based, Influenza virus; details: read-out: % Inhibition (EC50 class, Table 2)
[2] = biological target: Full length EN PA (influenza PA endonuclease) (Influenza A virus, UniProt P15659); assay: EN PA FRET inhibition assay; format: biochemical; details: FRET probe, mean of a minimum of two independent experiments, read-out: Potency (IC50 class, Table 3)

In the case of `CC(C)N1C[C@H](C(c2ccccc2)c2cccc(Cl)c2)n2ncc(=O)c(O)c2C1=O` (single isomer, unassigned) [Compound 73-A], the EC50 ([1]; Influenza A virus) is reported as < 20000 nM and the IC50 [2] is reported as < 250 nM.
`CC(C)N1C[C@@H](C(c2ccccc2)c2cccc(Cl)c2)n2ncc(=O)c(O)c2C1=O` (single isomer, unassigned) [Compound 73-B] was tested, and the EC50 ([1]; Influenza A virus) was < 20000 nM and the IC50 [2] was 250 to 1000 nM.
For `CC(C)N1C[C@H](C(c2ccccc2)c2cccc(Cl)c2)n2ncc(=O)c(O)c2C1=O` (single isomer, unassigned) [Compound 82-A], the EC50 [1] was < 20000 nM and the IC50 [2] was < 250 nM.
Molecule `CC(C)N1C[C@@H](C(c2ccccc2)c2cccc(Cl)c2)n2ncc(=O)c(O)c2C1=O` (single isomer, unassigned) [Compound 82-B] has an IC50 [2] of 250 to 1000 nM.
With `CN1C[C@H](C(c2ccccc2)c2ccccc2)n2ncc(=O)c(O)c2C1=O` [Compound 1-A] the EC50 ([1]; Influenza A virus) was < 20000 nM and the IC50 [2] was < 250 nM.
In the case of `CN1C[C@@H](C(c2ccccc2)c2ccccc2)n2ncc(=O)c(O)c2C1=O` [Compound 1-B], the EC50 ([1]; Influenza A virus) is reported as < 20000 nM and the IC50 [2] is reported as 250 to 1000 nM.
With `CN1CC(C(c2ccccc2)c2ccccc2)n2ncc(=O)c(O)c2C1=O` (centres unmarked) [Compound 1] the EC50 ([1]; Influenza A virus) was < 20000 nM and the IC50 [2] was < 250 nM.
For `CN1CC(Cc2ccccc2)n2ncc(=O)c(O)c2C1=O` (centres unmarked) [Compound 2], the IC50 [2] was < 250 nM.
With `CN1CC(CCc2ccccc2)n2ncc(=O)c(O)c2C1=O` (centres unmarked) [Compound 3] the IC50 [2] was < 250 nM.
With `Cc1ccccc1CC1CN(C)C(=O)c2c(O)c(=O)cnn21` (centres unmarked) [Compound 4] the IC50 [2] was < 250 nM.
For `CCN1C[C@H](C(c2ccccc2)c2ccccc2)n2ncc(=O)c(O)c2C1=O` [Compound 5-A], the EC50 ([1]; Influenza A virus) was < 20000 nM and the IC50 [2] was < 250 nM.
With `CCN1C[C@@H](C(c2ccccc2)c2ccccc2)n2ncc(=O)c(O)c2C1=O` [Compound 5-B] the EC50 ([1]; Influenza A virus) was < 20000 nM and the IC50 [2] was 250 to 1000 nM.
`CCN1CC(C(c2ccccc2)c2ccccc2)n2ncc(=O)c(O)c2C1=O` (centres unmarked) [Compound 5] was tested, and the EC50 ([1]; Influenza A virus) was < 20000 nM and the IC50 [2] was < 250 nM.
With `CC(C)N1C[C@@H](C(c2ccccc2)c2ccccc2)n2ncc(=O)c(O)c2C1=O` [Compound 6-B] the EC50 ([1]; Influenza A virus) was < 20000 nM and the IC50 [2] was 250 to 1000 nM.
In the case of `CC(C)N1CC(C(c2ccccc2)c2ccccc2)n2ncc(=O)c(O)c2C1=O` (centres unmarked) [Compound 6], the EC50 ([1]; Influenza A virus) is reported as < 20000 nM and the IC50 [2] is reported as < 250 nM.
For `CN1C[C@@H](C2c3ccccc3CCc3ccccc32)n2ncc(=O)c(O)c2C1=O` [Compound 7-B], the EC50 ([1]; Influenza A virus) was < 20000 nM and the IC50 [2] was < 250 nM.
In the case of `CN1CC(C2c3ccccc3CCc3ccccc32)n2ncc(=O)c(O)c2C1=O` (centres unmarked) [Compound 7], the EC50 ([1]; Influenza A virus) is reported as < 20000 nM and the IC50 [2] is reported as < 250 nM.
`CC(C)N1CC(=C(c2ccccc2)c2ccccc2)n2ncc(=O)c(O)c2C1=O` [Compound 11] was tested, and the IC50 [2] was < 250 nM.
With `CCN1C[C@H](C(c2ccccc2)c2cccc(Cl)c2)n2ncc(=O)c(O)c2C1=O` (some centres unmarked) [Compound 12-C] the IC50 [2] was < 250 nM.
With `CCN1C[C@@H]([C@@H](c2ccccc2)c2cccc(Cl)c2)n2ncc(=O)c(O)c2C1=O` [Compound 12-D] the IC50 [2] was 250 to 1000 nM.
For `CCN1C[C@@H]([C@H](c2ccccc2)c2cccc(Cl)c2)n2ncc(=O)c(O)c2C1=O` [Compound 12-E], the IC50 [2] was < 250 nM.
For `CCN1C[C@@H](C2c3ccccc3CCc3ccccc32)n2ncc(=O)c(O)c2C1=O` [Compound 14-B], the IC50 [2] was < 250 nM.
`CC(N1CC(=C(c2ccccc2)c2ccccc2)n2ncc(=O)c(O)c2C1=O)C(F)(F)F` (centres unmarked) [Compound 15] was tested, and the IC50 [2] was ≥ 1000 nM.
With `CC(C)N1C[C@H](C2c3ccccc3CCc3ccccc32)n2ncc(=O)c(O)c2C1=O` [Compound 17-A] the IC50 [2] was < 250 nM.
`CC(C)N1C[C@@H](C(c2cccc(F)c2)c2cccc(F)c2)n2ncc(=O)c(O)c2C1=O` [Compound 41-B] showed an IC50 [2] of 250 to 1000 nM.
In the case of `CCC(CC)N1CC(C(c2ccccc2)c2ccccc2)n2ncc(=O)c(O)c2C1=O` (centres unmarked) [Compound 43], the IC50 [2] is reported as < 250 nM.
With `CC(C)N1CC(C(c2cccc(Cl)c2)c2cccc(Cl)c2)n2ncc(=O)c(O)c2C1=O` (centres unmarked) [Compound 44] the IC50 [2] was < 250 nM.
`[2H]c1c([2H])c([2H])c(C(c2c([2H])c([2H])c([2H])c([2H])c2[2H])[C@H]2CN(C(C)C)C(=O)c3c(OC(=O)C(C)C)c(=O)cnn32)c([2H])c1[2H]` [Compound 130] was tested, and the EC50 ([1]; Influenza A virus) was < 20000 nM.

From patent US10980805B2, “Aza-pyridone compounds and uses thereof” (Janssen BioPharma, Inc., priority 2013, dated 2021)
